US20230134958A1, “NEW MEDICAL TREATMENT” (Umecrine Cognition AB, priority 2021, published 2023)

Tested on: cirrhotic patients defined as Child-Pugh class A and B with manifestation of CHE
Experiment: Continuous Reaction Time (CRT) test, clinical Phase II study part D (EudraCT 2016-003651-30), 21 days extended treatment
Type: in vivo, human
Experimental: Protocol EudraCT 2016-003651-30 was a randomized, double-blinded, placebo-controlled study consisting of four parts, where part D (partly) of the study is relevant to the herein disclosed and claimed invention. The aim of the study was to assess the potential efficacy (Part D) of the compound golexanolone in patients with cirrhosis. The study was performed at sites in Sweden, Denmark, Ukraine, Russia, Hungary and Poland.
Extended treatment (21 consecutive days) in cirrhotic patients defined as Child-Pugh class A and B with manifestation of CHE, was performed.
An objective of study part D (phase IIa, extended treatment) was to assess preliminary efficacy of treatment with the compound golexanolone on cognitive function, as measured by the Continuous Reaction time (CRT) test.
In order to be eligible for the study, patients required evidence of cognitive impairment defined as a CRT index <1.9 at screening. CRT was re-assessed at baseline, prior to dosing but was not required to be abnormal at baseline.
Exclusion criteria included uncontrolled infection, active gastrointestinal bleeding, a history of bleeding requiring transfusion, transjugular intrahepatic portosystemic shunt placement within the past 90 days, hepatorenal syndrome, uncontrolled ascites, current malignancy, evidence of overt HE at screening or within 7 days of screening, use of psychoactive drugs, or any other psychiatric or medical comorbidity judged by the Investigator to preclude safe participation and/or confound the interpretation of study results.
Alcohol consumption was not allowed within two days prior to screening or for 24 hours prior to all study visits. Moreover, subjects were required to have a negative alcohol breath test at screening and subsequent study visits, including Part D study days 10 and 21 at which cognitive function was measured.
The Investigational Medicinal Product (IMP) is self-administered by the patient at home, except for the study days of visiting the clinic (Days 1, 10 and 21), when the IMP is administered under surveillance. Assistance of a dedicated care-giver or family members/friends is mandatory during the extended treatment period. Intake of study medication, changes in concomitant medications and medical events between visits are registered in a diary on a daily basis by the patient/care-giver and a care-giver diary is completed. Efficacy parameters are evaluated. If assessed as required for practical reasons, a patient can be confined to the research clinic from the evening before dosing on Day 21. A follow-up visit is performed 5-10 days after (last) IMP administration. Change in CRT index from baseline (day 1) to 10 and 21 days respectively after start of treatment, as
compared to placebo, is evaluated.
The Investigational Medical Product (clinical formulation) is supplied as a lipid semi-solid filled in a gelatine capsule for oral administration. For the present study, each capsule contains 10 mg golexanolone. The excipient is a mixture of mono -and diglycerides of capric/caprylic glycerides (Imwitor® 742), which is of pharmacopoeia quality.
The Investigational Medical Product golexanolone is administered every twelve (12) hours (i. e. twice daily) for 21 consecutive days.
10 mg golexanolone BID (i.e. 20 mg per day) in combination with Standard of Care therapy; or 40 mg golexanolone BID (i.e. 80 mg per day) in combination with Standard of Care therapy; or 80 mg golexanolone BID (i.e. 160 mg per day) in combination with Standard of Care therapy; or placebo BID in combination with Standard of Care therapy.
Standard of Care therapy may be any one of an oral antioxidant, fluvoxamine, fluoxetine, ondansetron, colchicine, UDCA (ursodeoxycholic acid), OCA (obeticholic acid), ciclosporin, nalmefene, modafinil, rituximab, lactulose, rifaximin, propranolol, furosemide, methotrexate; or any combination thereof.

Compound: C#C[C@]1(O)CC[C@@]2(C)C(CC[C@@H]3[C@@H]2CC[C@]2(C)/C(=N/O)CC[C@@H]32)C1 (stereo partly drawn) [Golexanolone, 3α-ethynyl-3β-hydroxyandrostan-17-one oxime]
- Change in CRT compared to baseline (36 patients with abnormal CRT (<1.9) at baseline, 10 mg BID oral with Standard of Care, Day 10, N = 8): 0.3504
- Change in CRT compared to baseline (36 patients with abnormal CRT (<1.9) at baseline, 10 mg BID oral with Standard of Care, Day 21, N = 8): 0.4166
- Change in CRT compared to baseline (36 patients with abnormal CRT (<1.9) at baseline, 40 mg BID oral with Standard of Care, Day 10, N = 10): 0.3035
- Change in CRT compared to baseline (36 patients with abnormal CRT (<1.9) at baseline, 40 mg BID oral with Standard of Care, Day 21, N = 10): 0.4276
- Change in CRT compared to baseline (36 patients with abnormal CRT (<1.9) at baseline, 80 mg BID oral with Standard of Care, Day 10, N = 9): 0.5109
- Change in CRT compared to baseline (36 patients with abnormal CRT (<1.9) at baseline, 80 mg BID oral with Standard of Care, Day 21, N = 9): 0.5219
- Change in CRT compared to baseline (all 45 patients with abnormal (<1.9) or normal CRT at baseline, 10 mg BID oral with Standard of Care, Day 10, N = 10): 0.2762
- Change in CRT compared to baseline (all 45 patients with abnormal (<1.9) or normal CRT at baseline, 10 mg BID oral with Standard of Care, Day 21, N = 10): 0.2792
- Change in CRT compared to baseline (all 45 patients with abnormal (<1.9) or normal CRT at baseline, 40 mg BID oral with Standard of Care, Day 10, N = 10): 0.3035
- Change in CRT compared to baseline (all 45 patients with abnormal (<1.9) or normal CRT at baseline, 40 mg BID oral with Standard of Care, Day 21, N = 10): 0.4276
- Change in CRT compared to baseline (all 45 patients with abnormal (<1.9) or normal CRT at baseline, 80 mg BID oral with Standard of Care, Day 10, N = 13): 0.4593
- Change in CRT compared to baseline (all 45 patients with abnormal (<1.9) or normal CRT at baseline, 80 mg BID oral with Standard of Care, Day 21, N = 13): 0.3505
